The values below are quoted from earlier work in patent US20110171124A1, “In situ methods for monitoring the EMT status of tumor cells in vivo” (OSI Pharmaceuticals, Inc., priority 2009, published 2011).

This data set relates to NSCLC. The note with it: phase III, monotherapy, advanced treatment-refractory NSCLC patients.

Consider `C#Cc1cccc(Nc2ncnc3cc(OCCOC)c(OCCOC)cc23)c1` [erlotinib, [6,7-bis(2-methoxyethoxy)-4-quinazolin-4-yl]-(3-ethynylphenyl)amine], for which the disease progression entry was “delayed disease progression”, the survival entry is on record as “significantly prolonged survival” and the “worsening of lung cancer-related symptoms” value is “delayed worsening of lung cancer-related symptoms”.
